Like-named read-outs stand apart in the source and are kept apart here.
Tests used:
[1] = test system: Substance P Induced Relaxation of the Pig Coronary Arteries; assay: Antagonism of substance P induced relaxation of the pig coronary arteries; conditions: test compound concentration 3 × 10^-9 (unit not given), 30 min incubation
Procedure, shortened: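 Inverted pig coronary artery segments, endothelium outside, in Krebs-Henseleit at 37 °C (95/5 O2/CO2), isometric tension recorded. After prostaglandin F2α (10^-5 M) precontraction, substance P (3×10^-10 M and 10^-9 M cumulative) relaxation repeated after 30 min incubation with test compound.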

[2] = test system: Substance P Induced Plasma Extravasation; assay: Antagonism of substance P induced plasma extravasation in guinea-pigs; format: in vivo, guinea-pig; conditions: Cavia porcellus, 1 hour prior to substance P
Procedure, shortened: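 Female guinea-pigs; compound or solvent given s.c. or p.o. 1 h before substance P (2 mg/kg, femoral artery) plus Evans Blue (30 mg/kg). Blue colouring of nose, forepaws, conjunctiva scored at 10 min; trachea and urinary bladder at 30 min after CO2 sacrifice. Values are lowest active doses in mg/kg.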

[3] = sc, 10 min, s.c., conjunctiva, read-out: lowest active dose (LAD), conjunctiva
[4] = sc, 10 min, s.c., forepaws, read-out: lowest active dose (LAD), forepaws
[5] = sc, 10 min, s.c., nose, read-out: lowest active dose (LAD), nose
[6] = sc, 0.5 h, s.c., trachea, read-out: lowest active dose (LAD), trachea
[7] = sc, 0.5 h, s.c., urinary bladder, read-out: lowest active dose (LAD), urinary bladder
[8] = po, 10 min, p.o., conjunctiva, read-out: lowest active dose (LAD), conjunctiva
[9] = po, 10 min, p.o., forepaws, read-out: lowest active dose (LAD), forepaws
[10] = po, 10 min, p.o., nose, read-out: lowest active dose (LAD), nose
[11] = po, 0.5 h, p.o., trachea, read-out: lowest active dose (LAD), trachea
[12] = po, 0.5 h, p.o., urinary bladder, read-out: lowest active dose (LAD), urinary bladder

Compound | % inhibition of the response to 10^-9 M substance P [1] | minimal effective dose [2, 3] | minimal effective dose [2, 4] | minimal effective dose [2, 5] | minimal effective dose [2, 6] | minimal effective dose [2, 7] | minimal effective dose [2, 8] | minimal effective dose [2, 9] | minimal effective dose [2, 10] | minimal effective dose [2, 11] | minimal effective dose [2, 12]
O=C(c1cc(C(F)(F)F)cc(C(F)(F)F)c1)N1CC[C@H](N2CCC(=C3c4ccccc4CCn4c3nc(CO)c4CO)CC2)C[C@@H]1Cc1ccccc1 (relative stereo) [Compound 52] | 77.8% | 2.5 mg/kg | 2.5 mg/kg | 2.5 mg/kg | 10 mg/kg | 2.5 mg/kg | – | – | – | – | –
Cc1cnc2n1CCc1ccccc1C2=C1CCN([C@H]2CCN(C(=O)c3cc(C(F)(F)F)cc(C(F)(F)F)c3)[C@@H](Cc3ccccc3)C2)CC1 (relative stereo) [Compound 53] | 44.4% | 10 mg/kg | 10 mg/kg | 10 mg/kg | 10 mg/kg | 10 mg/kg | – | – | – | – | –
Cc1cnc2n1CCc1ccccc1C2=C1CCN([C@H]2CCN(C(=O)c3cc(C(F)(F)F)cc(C(F)(F)F)c3)[C@H](Cc3ccccc3)C2)CC1 (relative stereo) [Compound 54] | 69.8% | 2.5 mg/kg | 2.5 mg/kg | 2.5 mg/kg | 2.5 mg/kg | 2.5 mg/kg | – | – | – | – | –
O=C(c1cc(C(F)(F)F)cc(C(F)(F)F)c1)N1CC[C@H](N2CCC(=C3c4ccccc4CCn4c3nc3ccccc34)CC2)C[C@H]1Cc1ccccc1 (relative stereo) [Compound 72] | 97.4% | – | – | – | – | – | 10 mg/kg | 10 mg/kg | 10 mg/kg | 10 mg/kg | 10 mg/kg
O=C1Cn2ccnc2C(=C2CCN([C@H]3CCN(C(=O)c4cc(C(F)(F)F)cc(C(F)(F)F)c4)[C@@H](Cc4ccccc4)C3)CC2)c2ccsc21 (relative stereo) [Compound 106] | 92.3% | – | – | – | – | – | 10 mg/kg | 10 mg/kg | 10 mg/kg | 10 mg/kg | 10 mg/kg
O=C1Cn2ccnc2C(=C2CCN([C@@H]3CCN(C(=O)c4cc(C(F)(F)F)cc(C(F)(F)F)c4)[C@@H](Cc4ccccc4)C3)CC2)c2ccsc21 (relative stereo) [Compound 107] | 96.3% | – | – | – | – | – | 10 mg/kg | 10 mg/kg | 10 mg/kg | 10 mg/kg | 10 mg/kg
Cc1cc(C)cc(C(=O)N2CC[C@H](N3CCC(=C4c5ccsc5C(=O)Cn5ccnc54)CC3)C[C@@H]2Cc2ccccc2)c1 (relative stereo) [Compound 111] | 22.6% | 10 mg/kg | 10 mg/kg | 10 mg/kg | 10 mg/kg | 10 mg/kg | – | – | – | – | –
Cc1cc(C)cc(C(=O)N2CC[C@@H](N3CCC(=C4c5ccsc5C(=O)Cn5ccnc54)CC3)C[C@@H]2Cc2ccccc2)c1 (relative stereo) [Compound 112] | 66.7% | 0.63 mg/kg | 0.63 mg/kg | 0.63 mg/kg | 10 mg/kg | 2.5 mg/kg | – | – | – | – | –
O=C(c1cc(C(F)(F)F)cc(C(F)(F)F)c1)N1CC[C@H](N2CCC(=C3c4ccccc4OCn4ccnc43)CC2)C[C@@H]1Cc1ccccc1 (relative stereo) [Compound 113] | 87.9% | 10 mg/kg | 10 mg/kg | 10 mg/kg | 10 mg/kg | 10 mg/kg | – | – | – | – | –
O=C(c1cc(C(F)(F)F)cc(C(F)(F)F)c1)N1CC[C@@H](N2CCC(=C3c4ccccc4OCn4ccnc43)CC2)C[C@@H]1Cc1ccccc1 (relative stereo) [Compound 114] | 100.0% | 2.5 mg/kg | 10 mg/kg | 2.5 mg/kg | 10 mg/kg | 10 mg/kg | – | – | – | – | –

Reference: US6251894A, “1-(1,2-disubstituted piperidinyl)-4 (fused imidazole)-piperidine derivatives” (Janssen Pharmaceuticals N.V., priority 1995, dated 2001)
